Biological target: Mcl-1 protein (Homo sapiens, UniProt Q07820)
Test: Inhibition of Mcl-1 by the fluorescence polarisation technique (Method 1 or Method 2)
Format: binding
Details: for IC50: fluorescence polarisation, Fluorescein labelled ligand, Method 1 (not underlined) or Method 2 (underlined), read-out: IC50 (μM) Mcl-1 FP; for percentage fluorescence polarisation inhibition, Mcl-1 FP: partial inhibitors
Experimental: The relative binding potency of each compound was determined via Fluorescence Polarisation (FP).
An 11 point serial dilution of each compound was prepared in DMSO and 2 μl transferred into flat bottomed, low binding, 384-well plate (final DMSO concentration 5%). 38 μl of buffer (10 mM 4-(2-hydroxyethyl)-1-piperazineethanesulfonic acid [HEPES], 150 mM NaCl, 0.05% Tween 20, pH 7.4), containing the Fluorescein labelled ligand (final concentration 1 nM) and Mcl-1 protein (final concentration 5 nM) was then added.
An 11 point serial dilution of each compound was prepared in DMSO and 2 μl transferred into flat bottomed, low binding, 384-well plate (final DMSO concentration 5%). 38 μl of buffer (20 mM Na2HPO4, 1 mM EDTA, 50 mM NaCl, pH 7.4), containing the Fluorescein labelled ligand (final concentration 10 nM) and Mcl-1 protein (final concentration 10 nM) was then added.

Sequence of Mcl-1 protein (Q07820 whole entry): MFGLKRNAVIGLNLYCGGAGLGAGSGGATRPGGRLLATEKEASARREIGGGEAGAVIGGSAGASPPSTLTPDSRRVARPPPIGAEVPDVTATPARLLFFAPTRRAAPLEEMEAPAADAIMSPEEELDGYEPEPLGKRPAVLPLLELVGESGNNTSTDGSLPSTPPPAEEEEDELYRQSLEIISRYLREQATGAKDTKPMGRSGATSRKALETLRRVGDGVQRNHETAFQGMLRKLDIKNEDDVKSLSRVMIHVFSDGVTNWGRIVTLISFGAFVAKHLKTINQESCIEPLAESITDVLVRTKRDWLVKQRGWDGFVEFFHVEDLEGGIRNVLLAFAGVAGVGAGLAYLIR

IC50 [µM]	Compound	further results
0.751	CC(C)c1sc2ncnc(N[C@H](Cc3ccccc3)C(=O)O)c2c1-c1cccc2ccccc12 (single isomer, unassigned) [Example 202, N-[5-(naphthalen-1-yl)-6-(propan-2-yl)thieno[2,3-d]pyrimidin-4-yl]-D-phenylalanine]	
21.3	CCc1sc2ncnc(N[C@@H](C(=O)O)c3ccccc3-c3ccccc3)c2c1-c1cccc2ccccc12 (single isomer, unassigned) [Example 188]	
9.86	O=C(O)C(Cc1ccccc1)Nc1ncnc2sc(CO)c(-c3cccc4ccccc34)c12 [Example 198, N-[6-(hydroxymethyl)-(5Sa)-5-(naphthalen-1-yl)thieno[2,3-d]pyrimidin-4-yl]-D-phenylalanine]	
0.065	Cc1c(Cl)cccc1-c1c(C2CC2)sc2ncnc(NC(Cc3ccccc3)C(=O)O)c12 [Example 217, N-[(5Sa)-5-(3-chloro-2-methylphenyl)-6-cyclopropyl-thieno[2,3-d]pyrimidin-4-yl]-D-phenylalanine]	
0.495	CCc1sc2ncnc(NC(Cc3c(F)cccc3F)C(=O)O)c2c1-c1cccc(Cl)c1C [Example 131, N-[(5Sa)-5-(3-chloro-2-methylphenyl)-6-ethylthieno[2,3-d]pyrimidin-4-yl]-2,6-difluoro-D-phenylalanine]	
20.2	CCc1sc2ncnc(NC(Cc3ccccc3)C(=O)O)c2c1-c1cncc2ccccc12 [Example 81, N-[6-ethyl-(5Sa)-5-(isoquinolin-4-yl)thieno[2,3-d]pyrimidin-4-yl]-D-phenylalanine]	
2.1	CCc1sc2ncnc(N[C@H](CCc3ccccc3)C(=O)O)c2c1-c1cccc2ccccc12 [Example 169, (2R)-2-{[6-ethyl-5-(naphthalen-1-yl)thieno[2,3-d]pyrimidin-4-yl]amino}-4-phenylbutanoic acid]	
0.462	CCc1sc2ncnc(NC(Cc3ccccc3)C(=O)O)c2c1-c1cccc2ccccc12 [Example 101, N-[6-ethyl-(5Sa)-5-(naphthalen-1-yl)thieno[2,3-d]pyrimidin-4-yl]-D-phenylalanine]	
12.1	O=C(O)C(Cc1ccccn1)Nc1ncnc2sc(C(F)F)c(-c3cccc4ccccc34)c12 [Example 251, N-[6-(difluoromethyl)-(5Ra)-5-(naphthalen-1-yl)thieno[2,3-d]pyrimidin-4-yl]-3-pyridin-2-yl-D-alanine]	

The next lines start with the molecule.

Compound	IC50 [µM]	further results
CCc1sc2ncnc(NC(Cc3ccccc3O)C(=O)O)c2c1-c1cccc2ccccc12 [Example 174, N-[6-ethyl-(5Sa)-5-(naphthalen-1-yl)thieno[2,3-d]pyrimidin-4-yl]-2-hydroxy-D-phenylalanine]	0.466	
CCc1sc2ncnc(NC(Cc3ccc(F)cc3)C(=O)O)c2c1-c1cccc2ccccc12 [Example 177, N-[6-ethyl-(5Sa)-5-(naphthalen-1-yl)thieno[2,3-d]pyrimidin-4-yl]-4-fluoro-D-phenylalanine]	0.957	
CCCc1sc2ncnc(NC(Cc3ccccc3)C(=O)O)c2c1-c1cccc2ccccc12 [Example 253, N-[(5Ra)-5-(naphthalen-1-yl)-6-propylthieno[2,3-d]pyrimidin-4-yl]-D-phenylalanine]	1.36	
CCc1sc2ncnc(N[C@@H](Cc3ccccc3)C(=O)O)c2c1-c1ccc(OCCN(C)C)c(Cl)c1C [Example 58, N-((5Ra)-5-{3-chloro-4-[2-(dimethylamino)ethoxy]-2-methylphenyl}-6-ethylthieno[2,3-d]pyrimidin-4-yl)-L-phenylalanine]		percentage fluorescence polarisation inhibition, Mcl-1 FP (@ 10 μM test compound): 52.8% @ 10 μM
CCc1sc2ncnc(NC(Cc3ccccc3)C(=O)O)c2c1-c1ccc(OCCCN(C)C)c(Cl)c1C [Example 60, N-((5Sa)-5-{3-chloro-4-[3-(dimethylamino)propoxy]-2-methylphenyl}-6-ethylthieno[2,3-d]pyrimidin-4-yl)-D-phenylalanine]	0.092	
Cc1c(Cl)cccc1-c1c(C2CC2)sc2ncnc(NC(Cc3ccccc3)C(=O)O)c12 [Example 216, N-[(5Ra)-5-(3-chloro-2-methylphenyl)-6-cyclopropyl-thieno[2,3-d]pyrimidin-4-yl]-D-phenylalanine]		percentage fluorescence polarisation inhibition, Mcl-1 FP (@ 10 μM test compound): 58.95% @ 10 μM
CCc1sc2ncnc(NC(Cc3ccccc3)C(=O)O)c2c1-c1cccc2c1c(Cl)cn2CCN1CCCC1 [Example 233, N-((5Sa)-5-{3-chloro-1-[2-(pyrrolidin-1-yl)ethyl]-1H-indol-4-yl}-6-ethyl-thieno[2,3-d]pyrimidin-4-yl)-D-phenylalanine]	3.41	
CCc1sc2ncnc(NC(Cc3ccccc3)C(=O)O)c2c1-c1cccc(OC)c1C [Example 75, N-[6-ethyl-(5Sa)-5-(3-methoxy-2-methylphenyl)thieno[2,3-d]pyrimidin-4-yl]-D-phenylalanine]	0.28	
CCc1sc2ncnc(N[C@H](Cc3ccccc3[N+](=O)[O-])C(=O)O)c2c1-c1cccc(Cl)c1C [Example 135, N-[(5Ra)-5-(3-chloro-2-methylphenyl)-6-ethylthieno[2,3-d]pyrimidin-4-yl]-2-nitro-D-phenylalanine]		percentage fluorescence polarisation inhibition, Mcl-1 FP (@ 50 μM test compound): 75.25% @ 50 μM
CCc1sc2ncnc(NC(Cc3ccccc3)C(=O)O)c2c1-c1cccc2[nH]ccc12 [Example 73, N-[6-ethyl-(5Sa)-5-(1H-indol-4-yl)thieno[2,3-d]pyrimidin-4-yl]-D-phenylalanine]	0.276	
CC#Cc1sc2ncnc(N[C@H](Cc3ccccc3OCc3ccnn3C(C)(C)C)C(=O)OCC)c2c1-c1ccc(OCCN2CCN(C)CC2)c(Cl)c1C [Example 257, ethyl 2-[(1-tert-butyl-1H-pyrazol-5-yl)methoxy]-N-[(5Sa)-5-{3-chloro-2-methyl-4-[2-(4-methylpiperazin-1-yl)ethoxy]phenyl}-6-(prop-1-yn-1-yl)thieno[2,3-d]pyrimidin-4-yl]-D-phenylalaninate]		percentage fluorescence polarisation inhibition, Mcl-1 FP (@ 10 μM test compound): 57.15% @ 10 μM
CCc1sc2ncnc(N[C@H](Cc3ccncc3)C(=O)O)c2c1-c1cccc2ccccc12 [Example 193, N-[6-ethyl-5-(naphthalen-1-yl)thieno[2,3-d]pyrimidin-4-yl]-3-pyridin-4-yl-D-alanine]	36.5	
CCc1sc2ncnc(NC(Cc3ccccn3)C(=O)O)c2c1-c1cccc2c1c(Cl)cn2CCN1CCN(C)CC1 [Example 249, N-((5Ra)-5-{3-chloro-1-[2-(4-methylpiperazin-1-yl)ethyl]-1H-indol-4-yl}-6-ethyl-thieno[2,3-d]pyrimidin-4-yl)-3-pyridin-2-yl-D-alanine]	36.8	
CCc1sc2ncnc(N[C@H](Cc3ccccc3OCCN3CCN(C)CC3)C(=O)O)c2c1-c1cccc(Cl)c1C [Example 153, N-[(5Ra)-5-(3-chloro-2-methylphenyl)-6-ethylthieno[2,3-d]pyrimidin-4-yl]-2-[2-(4-methylpiperazin-1-yl)ethoxy]-D-phenylalanine]		percentage fluorescence polarisation inhibition, Mcl-1 FP (@ 50 μM test compound): 75.7% @ 50 μM
CCc1sc2ncnc(NC(CC3CCCCC3)C(=O)O)c2c1-c1cccc2ccccc12 [Example 166, 3-cyclohexyl-N-[6-ethyl-(5Sa)-5-(naphthalen-1-yl)thieno[2,3-d]pyrimidin-4-yl]-D-alanine]	0.064	
CCc1sc2ncnc(N[C@H](Cc3ccccc3)C(=O)O)c2c1-c1cccc2ccccc12 [Example 79, N-[6-ethyl-5-(naphthalen-1-yl)thieno[2,3-d]pyrimidin-4-yl]-D-phenylalanine]	0.429	
CCc1sc2ncnc(NC(Cc3ccccc3OCCC3CCCC3)C(=O)O)c2c1-c1cccc(Cl)c1C [Example 143, N-[(5Ra)-5-(3-chloro-2-methylphenyl)-6-ethylthieno[2,3-d]pyrimidin-4-yl]-2-(2-cyclopentylethoxy)-D-phenylalanine]		percentage fluorescence polarisation inhibition, Mcl-1 FP (@ 50 μM test compound): 68.85% @ 50 μM
CCc1sc2ncnc(NC(Cc3ccccc3OCCN3CCN(C)CC3)C(=O)O)c2c1-c1cccc(Cl)c1C [Example 154, N-[(5Sa)-5-(3-chloro-2-methylphenyl)-6-ethylthieno[2,3-d]pyrimidin-4-yl]-2-[2-(4-methylpiperazin-1-yl)ethoxy]-D-phenylalanine]	2.32	
CCc1sc2ncnc(NC(Cc3ccccc3)C(=O)O)c2c1-c1cccc(Br)c1C [Example 96, N-[(5Ra)-5-(3-bromo-2-methylphenyl)-6-ethylthieno[2,3-d]pyrimidin-4-yl]-D-phenylalanine]	1.63	
O=C(O)C(Cc1ccccn1)Nc1ncnc2sc(C(F)F)c(-c3cccc4ccccc34)c12 [Example 250, N-[6-(difluoromethyl)-(5Sa)-5-(naphthalen-1-yl)thieno[2,3-d]pyrimidin-4-yl]-3-pyridin-2-yl-D-alanine]	0.617	
CCc1sc2ncnc(N[C@H](Cc3ccccc3)C(=O)O)c2c1-c1cccc2[nH]ncc12 [Example 98, N-[6-ethyl-5-(1H-indazol-4-yl)thieno[2,3-d]pyrimidin-4-yl]-D-phenylalanine]	2.87	
COc1ccccc1-c1nccc(COc2ccccc2CC(Nc2ncnc3sc(-c4ccc(F)cc4)c(-c4ccc(OCCN5CCN(C)CC5)c(Cl)c4C)c23)C(=O)O)n1 [Example 7, N-[(5Sa)-5-{3-chloro-2-methyl-4-[2-(4-methylpiperazin-1-yl)ethoxy]phenyl}-6-(4-fluorophenyl)thieno[2,3-d]pyrimidin-4-yl]-2-{[2-(2-methoxyphenyl)pyrimidin-4-yl]methoxy}-D-phenylalanine]	0.008	
CCc1sc2ncnc(N[C@H](Cc3ccccc3C)C(=O)O)c2c1-c1cccc2ccccc12 (single isomer, unassigned) [Example 168, N-[6-ethyl-5-(naphthalen-1-yl)thieno[2,3-d]pyrimidin-4-yl]-2-methyl-D-phenylalanine]	4.78	
